The results in this text go back to patent US8796339B2, “Compositions comprising benzyl alcohol derivatives and further antimicrobial active compounds” (Symrise AG, priority 2008, dated 2014).

The assay concerns Aspergillus niger ATCC 16404. Put plainly: Testing for adequate preservation (European Pharmacopoeia 5.1.3 preservative stress test) of inoculated cosmetic emulsions. It counts as cell-based. Particulars: for cfu/ml at 0 days / cfu/ml at 2 days / cfu/ml at 7 days / cfu/ml at 14 days: 4-methylbenzyl alcohol 0.4%; for cfu/ml at 0 days / Aspergillus niger germ count at 0 days (initial, "0 value"): day 0; for cfu/ml at 2 days / Aspergillus niger germ count at 2 days: day 2; for cfu/ml at 7 days / Aspergillus niger germ count at 7 days: day 7; for cfu/ml at 14 days: day 14; for Aspergillus niger germ count at 0 days (initial, "0 value") / Aspergillus niger germ count at 2 days / Aspergillus niger germ count at 7 days: 1.0% product in O/W emulsion pH 5.5, B=1.0% 4-methylbenzyl alcohol. The procedure:
Testing for adequate preservation was carried out in accordance with the European Pharmacopoeia. Testing thus comprises contamination of the formulation, if possible in its final condition, with a prescribed inoculum of suitable microorganisms, storage of the inoculated formulation at a certain temperature, removal of samples from the container at certain intervals of time and determination of the number of microorganisms in the samples removed in this way. The preserving properties are adequate if, under the conditions of the test, a clear reduction or, where appropriate, no increase in the germ count results in the inoculated formulations after the prescribed times at the prescribed temperatures. Experimental details of the test procedure are described in the European Pharmacopoeia (ISBN 3-7692-2768-9; Supplement 2001 to the 3rd Edition, page 421-422, chapter 5.1.3). E: Aspergillus niger ATCC 16404 The initial germ count (cfu/ml; “0 value”) was in the range of from 230000 to 400000 in the various test series. For the tests for adequate preservation, a defined amount of the active compound combination according to the invention (product C) was incorporated into an O/W emulsion. For comparison purposes, the comparison products (product A and B) were incorporated into separate O/W emulsions. […] Phenonip® is a commercially available (Clariant, Nipa preservatives) and in cosmetic formulations widely used antimicrobial active mixture consisting of phenoxyethanol, methylparaben, ethylparaben, butylparaben, propylparaben and isobutylparaben. Testing for adequate preservation was carried out in accordance with the European Pharmacopoeia, as explained in Example 1a. The initial germ count (cfu/ml; “0 value”) was in the range of from 200,000 to 400,000 in the various test series.

Setting [1] is: Example 3, Table 9, dosage: 1,2-decanediol 1.0%, mixture 0.5% (title; listed as prints 1.5%)+0.2%.
[2] abbreviates: Example 3, Table 8, dosage: 1,2-hexanediol 3.0%, mixture 1.5%+0.2%.
[3] abbreviates: Example 3, Table 7, dosage: 1,2-pentanediol 4.0%, mixture 2.0%+0.2%.
Setting [4] is: Example 1a, A=0.5% 1,2-hexanediol+0.5% 1,2-octanediol, C=0.4%+0.4%+0.2%.
[5] abbreviates: Example 1b, A=0.25% 1,2-hexanediol+0.75% 1,2-octanediol, C=0.2%+0.6%+0.2%.
Where [6] appears, read: Example 2, A=1.0% 1,2-octanediol, C=0.8% 1,2-octanediol+0.2% 4-methylbenzyl alcohol.

`CCCCCCCCC(O)CO` (centres unmarked) [1,2-Decanediol, reference compound]: under setting [1], the “cfu/ml at 0 days” value is reported as 250000 cfu/ml, the “cfu/ml at 2 days” value is on record as 208000 cfu/ml and the “cfu/ml at 7 days” value was determined as 302000 cfu/ml.
With `CCCCC(O)CO` (centres unmarked) [1,2-Hexanediol, reference compound], under setting [2], the “cfu/ml at 0 days” value worked out at 250000 cfu/ml, the “cfu/ml at 2 days” value was 212000 cfu/ml and the “cfu/ml at 7 days” value came to 132000 cfu/ml.
Turning to `CCCC(O)CO` (centres unmarked) [1,2-Pentanediol, reference compound], under setting [3], the “cfu/ml at 0 days” value is given as 250000 cfu/ml, the “cfu/ml at 2 days” value was found to be 246000 cfu/ml, the “cfu/ml at 7 days” value amounted to 265000 cfu/ml and the “cfu/ml at 14 days” value turned out to be 246000 cfu/ml.
For `Cc1ccc(CO)cc1` [4-Methylbenzyl alcohol, 4-methylbenzyl alcohol], under setting [4], the “Aspergillus niger germ count at 0 days (initial, "0 value")” value (“Aspergillus niger germ count at 0 days” below) is on record as 320000 cfu/ml; the “Aspergillus niger germ count at 2 days” value is recorded as 302000 cfu/ml; the “Aspergillus niger germ count at 7 days” value is listed as 167000 cfu/ml. In addition, under setting [5], the “Aspergillus niger germ count at 0 days” value is listed as 320000 cfu/ml; the “Aspergillus niger germ count at 2 days” value amounted to 302000 cfu/ml; the “Aspergillus niger germ count at 7 days” value is 167000 cfu/ml. Under setting [6], the “Aspergillus niger germ count at 0 days” value is 320000 cfu/ml; the “Aspergillus niger germ count at 2 days” value is 302000 cfu/ml; the “Aspergillus niger germ count at 7 days” value is on record as 167000 cfu/ml. Under setting [3], the “cfu/ml at 0 days” value was found to be 250000 cfu/ml, the “cfu/ml at 2 days” value is 208000 cfu/ml, the “cfu/ml at 7 days” value is listed as 302000 cfu/ml and the “cfu/ml at 14 days” value is reported as 132000 cfu/ml. Besides, under setting [2], the “cfu/ml at 0 days” value stood at 250000 cfu/ml, the “cfu/ml at 2 days” value was 208000 cfu/ml and the “cfu/ml at 7 days” value is listed as 302000 cfu/ml. Further, under setting [1], the “cfu/ml at 0 days” value was 250000 cfu/ml, the “cfu/ml at 2 days” value amounted to 208000 cfu/ml and the “cfu/ml at 7 days” value is 302000 cfu/ml.
